Source: the kinase profiling compilation of Christmann-Franck et al. (2016)

Key:
Test in all cases: radiometric filter-binding kinase assay
EPHB2 (human) = EPHB2 (human) (UniProt P29323)
RPS6KA1 KD1 KD2 (human) = RPS6KA1 KD1 KD2 (human) (UniProt Q15418)
PAK7 (human) = PAK7 (human) (UniProt Q9P286)
MAPK1 (human) = MAPK1 (human) (UniProt P28482)
MAPK13 (human) = MAPK13 (human) (UniProt O15264)
HIPK2 (human) = HIPK2 (human) (UniProt Q9H2X6)
[1] = test system: SGK1 (human), O00141 [S422D]
PRKACA (human) = PRKACA (human) (UniProt P17612); conditions: compound 10.0 µM
SYK (human) = SYK (human) (UniProt P43405)
DYRK2 (human) = DYRK2 (human) (UniProt Q92630)
CHEK2 (human) = CHEK2 (human) (UniProt O96017)
NUAK1 (human) = NUAK1 (human) (UniProt O60285)
MAP3K11 (human) = MAP3K11 (human) (UniProt Q16584)
BRSK2 (human) = BRSK2 (human) (UniProt Q8IWQ3)
EPHB3 (human) = EPHB3 (human) (UniProt P54753)
IKBKE (human) = IKBKE (human) (UniProt Q14164)
NEK2 (human) = NEK2 (human) (UniProt P51955)
MARK2 (human) = MARK2 (human) (UniProt Q7KZI7)
MKNK1 (human) = MKNK1 (human) (UniProt Q9BUB5)
AURKA (human) = AURKA (human) (UniProt O14965)
DYRK1A (human) = DYRK1A (human) (UniProt Q13627)
MAPK10 (human) = MAPK10 (human) (UniProt P53779)
PAK4 (human) = PAK4 (human) (UniProt O96013); conditions: compound 1.0 µM
MST4 (human) = MST4 (human) (UniProt Q9P289)
PRKCA (human) = PRKCA (human) (UniProt P17252)
ERBB4 (human) = ERBB4 (human) (UniProt Q15303)
MAPK3 (human) = MAPK3 (human) (UniProt P27361)
MAPKAPK3 (human) = MAPKAPK3 (human) (UniProt Q16644); conditions: compound 1.0 µM
PRKAA1 or PRKAA2 (rat) = conditions: accession and sequence are those of the human protein
MAPK12 (human) = MAPK12 (human) (UniProt P53778)
CaMK1 (human) = CaMK1 (human) (UniProt Q14012); conditions: compound 1.0 µM
MAPK8 (human) = MAPK8 (human) (UniProt P45983)
[2] = test system: AKT1 (human), P31749 [S473D]
MAP2K6 (human) = MAP2K6 (human) (UniProt P52564)
PLK1 (human) = PLK1 (human) (UniProt P53350)
Sequence of PLK1 (human) (P53350 whole entry, looked up): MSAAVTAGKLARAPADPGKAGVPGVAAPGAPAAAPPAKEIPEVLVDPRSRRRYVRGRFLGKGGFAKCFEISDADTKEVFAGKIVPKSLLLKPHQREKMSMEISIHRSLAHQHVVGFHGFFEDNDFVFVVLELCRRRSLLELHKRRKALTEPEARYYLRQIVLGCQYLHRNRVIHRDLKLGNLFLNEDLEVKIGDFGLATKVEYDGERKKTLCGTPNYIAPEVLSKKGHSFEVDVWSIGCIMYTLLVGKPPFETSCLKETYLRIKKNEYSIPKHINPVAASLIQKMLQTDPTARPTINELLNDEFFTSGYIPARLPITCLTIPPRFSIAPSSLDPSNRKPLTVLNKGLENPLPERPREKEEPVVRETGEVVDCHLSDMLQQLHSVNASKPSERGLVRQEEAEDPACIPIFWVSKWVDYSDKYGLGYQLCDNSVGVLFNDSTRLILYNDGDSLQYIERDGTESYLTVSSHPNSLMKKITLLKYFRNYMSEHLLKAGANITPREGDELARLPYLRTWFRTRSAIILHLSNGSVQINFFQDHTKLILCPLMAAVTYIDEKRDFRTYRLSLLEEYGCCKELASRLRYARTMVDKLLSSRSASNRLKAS

Sequence of AURKA (human) (O14965 whole entry, looked up): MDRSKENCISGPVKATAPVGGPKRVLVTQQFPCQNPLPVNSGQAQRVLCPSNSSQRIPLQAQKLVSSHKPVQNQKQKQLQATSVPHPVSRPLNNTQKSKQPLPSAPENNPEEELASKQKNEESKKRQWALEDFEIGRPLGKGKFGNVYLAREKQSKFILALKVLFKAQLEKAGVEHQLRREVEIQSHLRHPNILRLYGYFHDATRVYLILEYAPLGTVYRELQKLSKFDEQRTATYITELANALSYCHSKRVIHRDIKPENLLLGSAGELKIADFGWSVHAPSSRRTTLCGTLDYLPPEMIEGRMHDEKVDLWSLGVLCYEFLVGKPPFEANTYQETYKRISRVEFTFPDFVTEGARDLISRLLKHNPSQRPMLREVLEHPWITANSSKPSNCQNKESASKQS
Sequence of MARK2 (human) (Q7KZI7 whole entry, looked up): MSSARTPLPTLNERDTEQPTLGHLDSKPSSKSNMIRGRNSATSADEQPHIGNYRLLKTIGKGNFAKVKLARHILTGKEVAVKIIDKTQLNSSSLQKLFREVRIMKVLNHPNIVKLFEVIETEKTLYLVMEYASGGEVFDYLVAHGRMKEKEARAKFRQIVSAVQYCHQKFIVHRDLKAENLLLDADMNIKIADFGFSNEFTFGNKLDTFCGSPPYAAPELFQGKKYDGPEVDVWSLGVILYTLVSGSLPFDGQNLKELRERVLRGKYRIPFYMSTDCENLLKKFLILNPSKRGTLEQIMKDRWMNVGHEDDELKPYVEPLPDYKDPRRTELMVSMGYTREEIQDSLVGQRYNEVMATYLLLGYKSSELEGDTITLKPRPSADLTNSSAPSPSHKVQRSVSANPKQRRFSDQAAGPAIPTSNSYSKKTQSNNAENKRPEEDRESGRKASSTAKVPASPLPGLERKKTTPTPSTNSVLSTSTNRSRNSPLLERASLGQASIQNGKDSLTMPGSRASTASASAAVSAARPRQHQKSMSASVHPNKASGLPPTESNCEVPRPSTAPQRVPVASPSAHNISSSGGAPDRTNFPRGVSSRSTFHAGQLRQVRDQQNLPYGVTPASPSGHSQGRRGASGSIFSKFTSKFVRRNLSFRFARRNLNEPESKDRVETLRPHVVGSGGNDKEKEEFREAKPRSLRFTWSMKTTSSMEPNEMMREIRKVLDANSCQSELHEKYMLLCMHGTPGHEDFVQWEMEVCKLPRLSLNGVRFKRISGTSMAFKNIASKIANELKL
Sequence of MAPK3 (human) (P27361 whole entry, looked up): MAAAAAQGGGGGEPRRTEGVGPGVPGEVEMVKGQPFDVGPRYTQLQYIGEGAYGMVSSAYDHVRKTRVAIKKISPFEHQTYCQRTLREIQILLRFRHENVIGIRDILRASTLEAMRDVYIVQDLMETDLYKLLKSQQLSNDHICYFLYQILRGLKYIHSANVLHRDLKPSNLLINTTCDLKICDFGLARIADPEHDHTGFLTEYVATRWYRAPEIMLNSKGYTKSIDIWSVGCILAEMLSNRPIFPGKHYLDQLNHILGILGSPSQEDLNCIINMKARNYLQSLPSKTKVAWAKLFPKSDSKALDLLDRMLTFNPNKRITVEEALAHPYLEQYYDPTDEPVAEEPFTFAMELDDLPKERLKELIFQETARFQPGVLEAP
Sequence of EPHB2 (human) (P29323 whole entry, looked up): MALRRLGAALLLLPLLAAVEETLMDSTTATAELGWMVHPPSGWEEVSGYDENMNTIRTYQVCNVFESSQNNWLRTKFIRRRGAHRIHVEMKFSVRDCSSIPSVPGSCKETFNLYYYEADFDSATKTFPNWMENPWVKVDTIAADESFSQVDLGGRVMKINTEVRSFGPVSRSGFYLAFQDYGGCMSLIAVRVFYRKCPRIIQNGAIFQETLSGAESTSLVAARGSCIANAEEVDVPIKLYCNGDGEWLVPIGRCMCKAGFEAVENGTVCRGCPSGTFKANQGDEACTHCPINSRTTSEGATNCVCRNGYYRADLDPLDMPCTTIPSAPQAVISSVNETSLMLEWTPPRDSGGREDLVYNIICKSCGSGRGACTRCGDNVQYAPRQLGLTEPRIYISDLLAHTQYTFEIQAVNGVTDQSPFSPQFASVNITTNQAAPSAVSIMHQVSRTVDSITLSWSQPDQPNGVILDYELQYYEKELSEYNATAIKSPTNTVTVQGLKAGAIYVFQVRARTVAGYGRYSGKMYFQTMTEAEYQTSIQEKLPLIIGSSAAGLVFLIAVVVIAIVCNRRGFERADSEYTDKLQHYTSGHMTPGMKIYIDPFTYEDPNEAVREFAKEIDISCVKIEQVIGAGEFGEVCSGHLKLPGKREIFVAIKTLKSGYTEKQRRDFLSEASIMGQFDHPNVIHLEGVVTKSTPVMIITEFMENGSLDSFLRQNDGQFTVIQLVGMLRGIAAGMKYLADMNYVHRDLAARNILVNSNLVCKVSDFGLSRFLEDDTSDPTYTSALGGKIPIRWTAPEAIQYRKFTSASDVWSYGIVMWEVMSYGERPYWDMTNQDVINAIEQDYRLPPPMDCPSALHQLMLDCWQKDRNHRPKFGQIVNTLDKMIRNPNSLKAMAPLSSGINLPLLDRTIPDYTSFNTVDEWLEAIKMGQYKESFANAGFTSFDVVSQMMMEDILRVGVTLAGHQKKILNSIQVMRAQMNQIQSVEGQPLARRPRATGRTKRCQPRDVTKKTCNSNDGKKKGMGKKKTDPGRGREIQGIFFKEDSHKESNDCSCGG
Sequence of DYRK2 (human) (Q92630 whole entry, looked up): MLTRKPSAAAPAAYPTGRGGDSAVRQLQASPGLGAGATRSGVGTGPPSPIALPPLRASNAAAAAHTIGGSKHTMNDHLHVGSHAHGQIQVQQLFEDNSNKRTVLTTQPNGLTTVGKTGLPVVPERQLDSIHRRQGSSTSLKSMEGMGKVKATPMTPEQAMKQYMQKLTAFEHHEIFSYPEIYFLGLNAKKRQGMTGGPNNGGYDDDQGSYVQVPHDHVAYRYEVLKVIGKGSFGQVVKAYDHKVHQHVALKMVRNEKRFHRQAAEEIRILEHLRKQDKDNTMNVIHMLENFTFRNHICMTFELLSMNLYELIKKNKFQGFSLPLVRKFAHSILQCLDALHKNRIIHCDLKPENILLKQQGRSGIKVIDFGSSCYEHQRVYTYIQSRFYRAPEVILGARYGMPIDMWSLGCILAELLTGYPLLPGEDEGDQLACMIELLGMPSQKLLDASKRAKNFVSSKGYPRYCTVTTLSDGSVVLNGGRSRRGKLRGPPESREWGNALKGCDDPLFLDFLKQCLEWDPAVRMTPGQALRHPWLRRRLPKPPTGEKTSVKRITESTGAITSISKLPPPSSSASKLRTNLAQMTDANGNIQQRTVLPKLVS
Sequence of MAPK13 (human) (O15264 whole entry, looked up): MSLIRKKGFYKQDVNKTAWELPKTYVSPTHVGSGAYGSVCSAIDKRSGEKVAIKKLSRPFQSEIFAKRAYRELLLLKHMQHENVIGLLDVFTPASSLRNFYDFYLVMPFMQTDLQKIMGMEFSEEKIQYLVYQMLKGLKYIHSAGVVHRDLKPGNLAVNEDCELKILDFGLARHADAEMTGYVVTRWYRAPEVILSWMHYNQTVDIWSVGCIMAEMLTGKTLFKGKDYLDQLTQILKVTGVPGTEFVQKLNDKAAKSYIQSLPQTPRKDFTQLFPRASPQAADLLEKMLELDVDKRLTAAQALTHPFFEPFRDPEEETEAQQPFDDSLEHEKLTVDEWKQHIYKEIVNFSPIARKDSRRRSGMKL
Sequence of IKBKE (human) (Q14164 whole entry, looked up): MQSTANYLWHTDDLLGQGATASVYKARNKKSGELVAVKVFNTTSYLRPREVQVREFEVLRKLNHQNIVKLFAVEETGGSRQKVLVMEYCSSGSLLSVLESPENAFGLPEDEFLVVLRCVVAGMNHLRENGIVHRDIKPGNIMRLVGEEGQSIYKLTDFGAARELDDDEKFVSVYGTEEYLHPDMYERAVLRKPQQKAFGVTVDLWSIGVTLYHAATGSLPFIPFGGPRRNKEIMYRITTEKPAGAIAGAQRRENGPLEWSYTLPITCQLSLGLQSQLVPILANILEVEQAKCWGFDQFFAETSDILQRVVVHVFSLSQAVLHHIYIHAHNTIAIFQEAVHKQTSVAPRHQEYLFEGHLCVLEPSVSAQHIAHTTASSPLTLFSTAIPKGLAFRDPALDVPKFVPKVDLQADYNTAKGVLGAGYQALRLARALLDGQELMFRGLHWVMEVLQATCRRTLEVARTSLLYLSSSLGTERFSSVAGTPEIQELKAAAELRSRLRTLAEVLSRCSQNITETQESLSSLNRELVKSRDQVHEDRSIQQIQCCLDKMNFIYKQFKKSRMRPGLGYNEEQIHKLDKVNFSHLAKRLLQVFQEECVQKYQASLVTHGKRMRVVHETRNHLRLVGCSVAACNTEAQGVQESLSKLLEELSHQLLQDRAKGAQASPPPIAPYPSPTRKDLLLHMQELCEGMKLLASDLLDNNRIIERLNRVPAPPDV

CC(C)(C#N)c1ccc(N2C(=O)OCc3cnc4ccc(-c5cnc6ccccc6c5)cc4c32)cc1
residual activity (EPHB2 (human); compound 1.0 µM): 93% | residual activity (EPHB2 (human); compound 10.0 µM): 95% | residual activity (RPS6KA1 KD1 KD2 (human); compound 1.0 µM): 96% | residual activity (RPS6KA1 KD1 KD2 (human); compound 10.0 µM): 73% | residual activity (PAK7 (human); compound 1.0 µM): 99% | residual activity (PAK7 (human); compound 10.0 µM): 80% | residual activity (MAPK1 (human); compound 1.0 µM): 83% | residual activity (MAPK1 (human); compound 10.0 µM): 95% | residual activity (MAPK13 (human); compound 1.0 µM): 96% | residual activity (MAPK13 (human); compound 10.0 µM): 95% | residual activity (HIPK2 (human); compound 1.0 µM): 99% | residual activity (HIPK2 (human); compound 10.0 µM): 114% | residual activity ([1]; compound 1.0 µM): 96% | residual activity ([1]; compound 10.0 µM): 82% | residual activity (PRKACA (human)): 92% | residual activity (SYK (human); compound 1.0 µM): 105% | residual activity (SYK (human); compound 10.0 µM): 76% | residual activity (DYRK2 (human); compound 1.0 µM): 73% | residual activity (DYRK2 (human); compound 10.0 µM): 85% | residual activity (CHEK2 (human); compound 1.0 µM): 95% | residual activity (CHEK2 (human); compound 10.0 µM): 94% | residual activity (NUAK1 (human); compound 1.0 µM): 32% | residual activity (NUAK1 (human); compound 10.0 µM): 16% | residual activity (MAP3K11 (human); compound 1.0 µM): 81% | residual activity (MAP3K11 (human); compound 10.0 µM): 83% | residual activity (BRSK2 (human); compound 1.0 µM): 89% | residual activity (BRSK2 (human); compound 10.0 µM): 100% | residual activity (EPHB3 (human); compound 1.0 µM): 116% | residual activity (EPHB3 (human); compound 10.0 µM): 103% | residual activity (IKBKE (human); compound 1.0 µM): 111% | residual activity (IKBKE (human); compound 10.0 µM): 97% | residual activity (NEK2 (human); compound 1.0 µM): 108% | residual activity (NEK2 (human); compound 10.0 µM): 103% | residual activity (MARK2 (human); compound 1.0 µM): 101% | residual activity (MARK2 (human); compound 10.0 µM): 95% | residual activity (MKNK1 (human); compound 1.0 µM): 89% | residual activity (MKNK1 (human); compound 10.0 µM): 90% | residual activity (AURKA (human); compound 1.0 µM): 101% | residual activity (AURKA (human); compound 10.0 µM): 108% | residual activity (DYRK1A (human); compound 1.0 µM): 89% | residual activity (DYRK1A (human); compound 10.0 µM): 83% | residual activity (MAPK10 (human); compound 1.0 µM): 87% | residual activity (MAPK10 (human); compound 10.0 µM): 77% | residual activity (PAK4 (human)): 94% | residual activity (MST4 (human); compound 1.0 µM): 93% | residual activity (MST4 (human); compound 10.0 µM): 83% | residual activity (PRKCA (human); compound 1.0 µM): 101% | residual activity (PRKCA (human); compound 10.0 µM): 94% | residual activity (ERBB4 (human); compound 1.0 µM): 110% | residual activity (ERBB4 (human); compound 10.0 µM): 97% | residual activity (MAPK3 (human); compound 1.0 µM): 85% | residual activity (MAPK3 (human); compound 10.0 µM): 83% | residual activity (MAPKAPK3 (human)): 88% | residual activity (PRKAA1 or PRKAA2 (rat); compound 1.0 µM): 91% | residual activity (PRKAA1 or PRKAA2 (rat); compound 10.0 µM): 89% | residual activity (MAPK12 (human); compound 1.0 µM): 88% | residual activity (MAPK12 (human); compound 10.0 µM): 100% | residual activity (CaMK1 (human)): 73% | residual activity (MAPK8 (human); compound 1.0 µM): 106% | residual activity (MAPK8 (human); compound 10.0 µM): 109% | residual activity ([2]; compound 1.0 µM): 102% | residual activity ([2]; compound 10.0 µM): 117% | residual activity (MAP2K6 (human); compound 1.0 µM): 101% | residual activity (MAP2K6 (human); compound 10.0 µM): 92% | residual activity (PLK1 (human); compound 1.0 µM): 93% | residual activity (PLK1 (human); compound 10.0 µM): 87%
